# Measured values from patent US10760052B2, “Method of inhibiting tau phosphorylation” (priority 2012, dated 2020).
# How the values were obtained:
# FLNA = molecular target: T1, FLNA (Homo sapiens, UniProt P21333); assay: [3H]NLX competition binding to FLNA in A7 cell membranes; conditions: 0.5 nM [3H]NLX, N=4, read-out: IC50-L, inhibition of [3H]NLX binding
# T1 construct: validate the use of that 5-mer peptide as a surrogate for the complete molecule in the assays carried out herein; host or cells: A7 cells
# ERK2 = assay: Aβ42-induced ERK2 activation (pERK2) in rat frontal cortical synaptosomes; type: cell-based; conditions: simultaneous treatment
# Method: FIG. 3 in two panels as FIG. 3A and FIG. 3B, illustrates that FLNA-binding compounds reduce Aβ-induced α7nAChR-mediated ERK2 signaling. In the same treated synaptosomes used in FIG. 2, levels of phosphorylated (activated) ERK2 were measured in immunoprecipitates of ERK2. […] Immunoprecipitates were determined by Western blotting (FIG. 3A) and quantified for four compounds by densitometry (FIG. 3B). n=3.
# Phosphorylation of ERK2 indicates its activation, which leads to tau phosphorylation.
# [1] = test system: tau protein phosphorylated at S202, T231 and T181; assay: Aβ42-induced tau phosphorylation in rat frontal cortical synaptosomes; type: cell-based
# Method: FIG. 4 in four panels as FIGS. 4A-4D, illustrates that FLNA-binding compounds reduce tau phosphorylation at all three phosphorylation sites. […] The three phosphoepitopes of tau were detected in immunoprecipitates using specific antibodies. […] Immunoprecipitates were determined by Western blotting (FIGS. 4A-4C) and quantified by densitometry (FIG. 4D).
# (§1) FIG. 42, also in two panels, FIGS. 42A and 42B, illustrates that FLNA-binding compounds reduce tau phosphorylation at all three phosphorylation sites using the compounds and concentrations of FIG. 41 using immunoprecipitation and Western blotting. […] The three phosphoepitopes of tau were detected in immunoprecipitates using specific antibodies.
# as §1, with “44,” for “42,”, “FIG. 44A” for “FIGS. 42A”, “FIG. 44B,” for “42B,”, “43” for “41”, “antibodies. Aβ42 strongly promotes tau phosphorylation at all three sites.” for “antibodies.”
# as §1, with “46,” for “42,”, “FIG. 46A” for “FIGS. 42A”, “FIG. 46B,” for “42B,”, “45” for “41”, “antibodies. Aβ42 strongly promotes tau phosphorylation at all three sites.” for “antibodies.”
# The three primary phosphorylation sites on tau protein were examined for their phosphorylation levels compared to total tau protein content. Tau, phosphorylated at these three sites, is a constituent of NFTs. Consistent with effects on FLNA-α7nAChR association, and ERK2 activation, all of the FLNA-binding compounds assayed, with 10 minute pre-incubation, decreased Aβ42-induced phosphorylation of tau at all three sites (FIG. 4).
# FLNA-α7nAChR association = assay: FLNA association with α7nAChR in organotypic frontocortical slice cultures; type: cell-based, rat; conditions: 100 nM Aβ42, 16 hours, compound added simultaneously
# Method: (§2) Tissue was harvested and solubilized, and a specific antibody against FLNA was used to immunoprecipitate FLNA and associated proteins. The FLNA immunoprecipitate was size-fractionated using SDS-PAGE, transferred and probed with specific antibodies directed against each of the following receptors: α7nAChR, TLR4, IR and MOR.
# (§3) Rat brain slice organotypic culture methods were modified from those published previously. [Adamchik et al., Brain Res Brain Res Protoc 5:153-158 (2000).] FCX slices ([…]) were transferred to sterile, porous Millicell-CM inserts (0.4 μm). Each culture insert unit contained two brain slices and was placed into individual wells of a 12-well culture tray in 2 ml medium: 50% MEM with Earl's salts, 2 mM L-glutamine, 25% Earl's balanced salt solution, 6.5 g/l D-glucose, 20% fetal bovine serum (FBS), 5% horse serum, 25 mM HEPES buffer, pH 7.2, and […]. […]
# (§4) The level of FLNA-associated α7nAChRs was determined using a co-immunoprecipitation/Western blotting method as described previously. […] The levels of FLNA-associated α7nAChR, TLR4, IR and MOR were assessed by Western blotting using specific antibodies directed against the respective proteins and the blot stripped and re-probed for FLNA for immunoprecipitation/loading control.
# FLNA-TLR4 association = assay: FLNA association with TLR4 in organotypic frontocortical slice cultures; type: cell-based, rat; conditions: 100 nM Aβ42, 16 hours, compound added simultaneously
# Method: as §2, §3, §4
# NMDAR = type: in vivo, mouse; conditions: 10 mg/kg twice daily
# α7nAChR-FLNA complex = molecular target: T2, α7nAChR-FLNA complex (Homo sapiens, UniProt P21333); assay: Postmortem human frontal cortex: α7nAChR-FLNA association; type: cell-based; conditions: AD and Aβ42-treated control tissue; 0.1 or 1 nM
# T2 construct: from tissue; host or cells: postmortem frontal cortex slices / synaptosomes (AD and control subjects)
# T2 sequence (P21333 2-2647, one chain of several): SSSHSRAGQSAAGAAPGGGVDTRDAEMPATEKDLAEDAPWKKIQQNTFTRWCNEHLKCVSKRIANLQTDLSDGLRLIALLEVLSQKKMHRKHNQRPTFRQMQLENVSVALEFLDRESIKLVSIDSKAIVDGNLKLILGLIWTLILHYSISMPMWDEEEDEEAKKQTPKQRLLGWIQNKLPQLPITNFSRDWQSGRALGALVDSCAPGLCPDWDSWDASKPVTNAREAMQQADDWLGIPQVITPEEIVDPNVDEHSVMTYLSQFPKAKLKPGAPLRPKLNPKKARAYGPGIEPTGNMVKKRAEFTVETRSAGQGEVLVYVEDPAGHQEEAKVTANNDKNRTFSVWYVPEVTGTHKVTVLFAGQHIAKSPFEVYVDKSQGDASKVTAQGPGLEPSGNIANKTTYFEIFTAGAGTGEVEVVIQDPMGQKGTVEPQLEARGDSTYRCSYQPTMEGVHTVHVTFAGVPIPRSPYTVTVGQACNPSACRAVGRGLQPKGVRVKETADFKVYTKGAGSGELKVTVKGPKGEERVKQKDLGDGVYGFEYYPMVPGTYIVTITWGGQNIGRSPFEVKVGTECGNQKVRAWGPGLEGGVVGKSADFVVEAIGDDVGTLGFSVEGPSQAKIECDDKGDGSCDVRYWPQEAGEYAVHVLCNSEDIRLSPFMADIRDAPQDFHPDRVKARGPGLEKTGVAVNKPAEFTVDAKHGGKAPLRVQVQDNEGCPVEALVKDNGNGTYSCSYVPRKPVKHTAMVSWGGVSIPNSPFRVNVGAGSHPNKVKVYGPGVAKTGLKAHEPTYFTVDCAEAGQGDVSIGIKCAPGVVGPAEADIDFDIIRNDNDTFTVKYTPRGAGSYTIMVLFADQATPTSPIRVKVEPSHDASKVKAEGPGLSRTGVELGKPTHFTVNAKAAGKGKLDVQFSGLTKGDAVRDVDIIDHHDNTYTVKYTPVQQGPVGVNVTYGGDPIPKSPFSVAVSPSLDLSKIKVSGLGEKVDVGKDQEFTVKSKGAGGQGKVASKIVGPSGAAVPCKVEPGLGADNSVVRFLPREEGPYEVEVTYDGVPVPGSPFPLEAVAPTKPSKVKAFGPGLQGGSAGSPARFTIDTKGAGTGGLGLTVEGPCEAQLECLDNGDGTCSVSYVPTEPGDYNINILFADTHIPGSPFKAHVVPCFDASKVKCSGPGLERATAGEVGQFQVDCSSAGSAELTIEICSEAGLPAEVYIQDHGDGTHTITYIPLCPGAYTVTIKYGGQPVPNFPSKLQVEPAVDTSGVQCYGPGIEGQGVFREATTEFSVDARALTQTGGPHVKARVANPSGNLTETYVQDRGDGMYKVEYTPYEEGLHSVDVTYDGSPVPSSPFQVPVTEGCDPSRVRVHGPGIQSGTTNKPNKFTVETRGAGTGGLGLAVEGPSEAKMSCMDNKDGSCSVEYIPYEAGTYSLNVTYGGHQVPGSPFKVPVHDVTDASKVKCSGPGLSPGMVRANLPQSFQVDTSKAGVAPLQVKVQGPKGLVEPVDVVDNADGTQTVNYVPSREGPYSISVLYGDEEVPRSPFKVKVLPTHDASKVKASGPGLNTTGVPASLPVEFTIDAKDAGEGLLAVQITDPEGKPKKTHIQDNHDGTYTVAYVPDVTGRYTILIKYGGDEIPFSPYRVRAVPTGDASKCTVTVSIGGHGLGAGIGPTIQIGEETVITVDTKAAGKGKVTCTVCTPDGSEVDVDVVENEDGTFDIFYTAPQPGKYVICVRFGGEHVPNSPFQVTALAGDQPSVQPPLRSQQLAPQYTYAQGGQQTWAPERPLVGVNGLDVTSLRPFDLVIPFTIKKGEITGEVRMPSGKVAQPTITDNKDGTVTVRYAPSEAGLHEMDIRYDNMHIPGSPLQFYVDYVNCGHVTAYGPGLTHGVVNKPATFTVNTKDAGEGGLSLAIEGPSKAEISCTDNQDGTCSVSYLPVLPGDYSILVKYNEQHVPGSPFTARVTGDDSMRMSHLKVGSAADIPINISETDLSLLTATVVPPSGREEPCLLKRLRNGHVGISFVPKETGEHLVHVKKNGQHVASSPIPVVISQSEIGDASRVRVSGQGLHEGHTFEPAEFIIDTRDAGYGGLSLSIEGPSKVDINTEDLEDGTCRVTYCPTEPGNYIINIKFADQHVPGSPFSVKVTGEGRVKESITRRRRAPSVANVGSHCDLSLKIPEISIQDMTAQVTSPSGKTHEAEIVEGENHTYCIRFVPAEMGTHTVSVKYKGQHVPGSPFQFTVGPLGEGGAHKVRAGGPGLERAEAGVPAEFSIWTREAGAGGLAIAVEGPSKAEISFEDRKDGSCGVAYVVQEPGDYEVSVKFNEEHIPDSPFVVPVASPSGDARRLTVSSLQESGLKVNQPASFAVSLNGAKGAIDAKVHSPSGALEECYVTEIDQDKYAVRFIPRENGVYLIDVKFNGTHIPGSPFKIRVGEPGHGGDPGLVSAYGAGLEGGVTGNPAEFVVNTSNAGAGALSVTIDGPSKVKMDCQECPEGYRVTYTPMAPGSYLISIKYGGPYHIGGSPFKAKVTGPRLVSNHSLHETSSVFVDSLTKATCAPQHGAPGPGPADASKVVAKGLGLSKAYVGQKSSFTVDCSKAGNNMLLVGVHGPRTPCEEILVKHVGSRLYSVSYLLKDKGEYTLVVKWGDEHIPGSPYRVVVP
# Method: Postmortem frontal cortex tissues were gradually thawed (from −80° C. to −20° C.) and were sliced using a chilled McIlwain tissue chopper (200 μm×200 μm×3 mm). […] Following two additional washes with 1 ml of ice-cold K-R, brain slices were suspended in 1 ml of K-R.
# Incubation continued for 1 hour in the dark to minimize light destruction of the test agents. […] Reaction was terminated by the addition of 1.5 ml of ice-cold Ca^2+-free K-R. Tissue slices were harvested by a brief centrifugation and used as the tissue sources for various assays.
# [2] = test system: tau phosphorylated at S202, T231 and T181; assay: Postmortem human frontal cortical synaptosomes: Aβ42-induced tau phosphorylation with VAKGL decoy; type: cell-based; conditions: postmortem control frontocortical tissue
# Method: FIG. 34 VAKGL (SEQ ID NO: 1) pentapeptide (10 μM) blocks Compound C0105's prevention of tau phosphorylation. Again using postmortem frontal cortical synaptosomes, the VAKGL pentapeptide blocks C0105's reduction in tau phosphorylation at all three phosphorylation sites found in neurofibrillary tangles. Western blots (FIG. 34A), in which numerals outside of and to the left of the blots are as discussed before, were analyzed by densitometric quantitation (FIG. 34B). Data are means±SEM. n=3. *p<0.01 vs. the respective basal level; # p<0.01 vs. Aβ42-exposed tissues.
# In postmortem control frontocortical tissue, the FLNA pentapeptide binding site of Compound C0105 (VAKGL of SEQ ID NO: 1) was used as a decoy to block the attenuation of FLNA association with α7nAChR and TLR4 by Compound C0105 (FIG. 33).
smiles,measurement,setting,value
CN1CCC2(CC1)NCC(=O)N2Cc1ccccc1 [Compound C0105],IC50,FLNA,0.226 nM
same,ERK2 activation (pERK2),ERK2,greatly suppressed
same,"Aβ42-induced tau phosphorylation at S202, T231 and T181","[1]; 1 or 10 nM compound, simultaneously or 10-minute pretreatment, Aβ42 0.1 μM",reduced this phosphorylation at both concentrations
same,Aβ42-induced phosphorylation of tau,[1]; simultaneous administration,reduced tau phosphorylation with simultaneous administration
same,Aβ42-induced increase in FLNA-α7nAChR association,FLNA-α7nAChR association,"reduced the Aβ42-induced increase in FLNA-α7nAChR association at 0.1, 1 and 10 nM"
same,Aβ42-induced increase in FLNA-TLR4 association,FLNA-TLR4 association,reduced the increase in FLNA-TLR4 at 1 and 10 nM
same,Aβ42-induced NMDAR dysfunction (calcium influx after NMDA and glycine),NMDAR,restored the Aβ42-induced NMDAR dysfunction
same,FLNA association with α7nAChR,α7nAChR-FLNA complex,reduces Aβ42-induced FLNA association with α7nAChR and TLR4
same,Aβ42-induced tau phosphorylation,[2],inhibits tau phosphorylation
